Measured values as given in ChEMBL document CHEMBL1201862, “PubChem BioAssay data set” (2004).
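Five concentrations, 48 hours, 96-well plates. GI50 is the concentration that inhibits growth by half.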 The source made the active and inactive calls. Cut-off read from the data, not from the text of the source: active = GI50 up to about 1.1 µM and inactive = higher.

Legend:
Assay in all cases: NCI anticancer screen, dose series, 48 h
[1] = tested on: SNB-78
[2] = tested on: BT-549
[3] = tested on: MDA-MB-435
[4] = tested on: HOP-62
[5] = tested on: T47D
[6] = tested on: DU-145
[7] = tested on: ACHN
[8] = tested on: A498
[9] = tested on: SK-MEL-2
[10] = tested on: LOX IMVI
[11] = tested on: MDA-MB-231
[12] = tested on: UO-31
[13] = tested on: CCRF-CEM
[14] = tested on: OVCAR-4
[15] = tested on: SK-MEL-28
[16] = tested on: SK-OV-3
[17] = tested on: SK-MEL-5
[18] = tested on: M14
[19] = tested on: SF-295
[20] = tested on: RXF 393

Measured: GI50

C/C1=C/C2OC(=O)C3(C)C2C(CC2(C)OC1=CC2=O)OC3(O)C(C)C (stereo not given)
inactive: [1] 35.2 µM | [2] 5.2 µM | [3] 38.3 µM | [4] 41.6 µM | [5] 58.2 µM | [6] 59.8 µM | [7] 33.9 µM | [8] 73.8 µM | [9] 29.4 µM | [10] 31.4 µM | [11] > 100 µM | [12] 84.1 µM | [13] 23.6 µM | [14] 25.1 µM | [15] 40.5 µM | [16] 46 µM | [17] 23.6 µM | [18] 37 µM | [19] 29.4 µM | [20] > 37.4 µM
